Key:
SH-SY5Y cells [1] = assay: Toxicity in neuronal SH-SY5Y cells, MTT assay; assay type: cell-based; details: for toxic effects: 24 h, at 80 μM; for IC50: Homo sapiens, read-out: IC50 (concentration resulting in 50% inhibition of neuronal viability), 24 h, 2.5-80 μM
Experimental: […]. Human neuronal SH-SY5Y cells were routinely grown in Dulbecco’s modified Eagle’s Medium supplemented with 10% fetal bovine serum, 2 mM L-glutamine, 50 U/mL penicillin and 50 µg/mL streptomycin at 37 °C in a humidified incubator with 5 % CO2.
SH-SY5Y cells were seeded in a 96-well plate at 2 × 10^4 cells/well, incubated for 24 h and then treated with the compounds for 24 h. Cell viability, in terms of mitochondrial metabolic function, was evaluated by 3-(4,5-dimethylthiazol-2-yl)-2,5-diphenyltetrazolium bromide (MTT) test, as previously described.

SH-SY5Y cells [2] = assay: ROS formation induced by t-BOOH in SH-SY5Y cells, H2DCF-DA probe; assay type: cell-based, human; design: key to Direct Antioxidant Activity in SH-SY5Y Cells (percentage inhibition of ROS formation induced by t-BOOH): In: inactive; details: for inhibition at 10 µM: Homo sapiens, SH-SY5Y, chronic treatment 24 h with compound 10 μM, then t-BOOH 100 μM for 30 min, read-out: Indirect Antioxidant Activity in SH-SY5Y Cells (percentage inhibition of ROS formation induced by t-BOOH); for Direct Antioxidant Activity in SH-SY5Y Cells (percentage inhibition of ROS formation induced by t-BOOH): simultaneous treatment 30 min, compound 10 µM and t-BOOH 100 μM
Experimental: In parallel, we evaluated the antioxidant activity of the compounds not associated with toxicity (Figure 5) against the ROS formation induced by t-BOOH in SH-SY5Y cells. To appraise the direct and indirect antioxidant activity, the SH-SY5Y cells were simultaneously treated for 30 min with 3a, 3b and 3e (10 µM) and t-BOOH (100 µM) or chronically treated for 24 h (the time necessary to activate the endogenous antioxidant system) with 3a, 3b and 3e (10 µM) and then exposed to t-BOOH (100 µM) for 30 min, respectively. Then, the intracellular ROS formation was detected by using the fluorescent probe 2′,7′-dichlorodihydrofluorescein diacetate (H2DCF-DA).
(§1) Human neuronal SH-SY5Y cells were routinely grown in Dulbecco’s modified Eagle’s Medium supplemented with 10% fetal bovine serum, 2 mM L-glutamine, 50 U/mL penicillin and 50 µg/mL streptomycin at 37 °C in a humidified incubator with 5 % CO2.
SH-SY5Y cells were seeded in a 96-well plate at 2 × 10^4 cells/well, incubated for 24 h, and then treated with compounds for 24 h before or during the treatment of 30 min with t-BOOH. ROS formation was evaluated by using the fluorescent probe H2DCF-DA, as previously described.

SH-SY5Y cells [3] = assay: Intracellular GSH levels in SH-SY5Y cells, MCB assay; assay type: cell-based, human; details: 24 h, 2.5–10 μM
Experimental: Among the endogenous antioxidants in the central nervous system, glutathione (GSH) plays an important role to maintain the redox balance by directly interacting with ROS formed during the physiological metabolic processes. […] We therefore evaluated the ability of compounds 3a, 3b and 3e to modulate the intracellular GSH levels in SH-SY5Y cells, after 24 h of treatment using the fluorescent probe monochlorobimane (MCB).
as §1
SH-SY5Y cells were seeded in a black 96-well plate at 2 × 10^4 cells/well, incubated for 24 h and then treated with the compounds for 24 h. GSH levels were evaluated by using monochlorobimane, as previously described

EeAChE = target: T1, EeAChE (Electrophorus electricus, UniProt O42275); assay: AChE inhibition, modified Ellman kinetic assay; assay type: biochemical
T1 construct: purified from Electrophorus electricus; purchased Sigma-Aldrich type V-S; host or cells: Electrophorus electricus (natural source)
T1 sequence (O42275 24-633): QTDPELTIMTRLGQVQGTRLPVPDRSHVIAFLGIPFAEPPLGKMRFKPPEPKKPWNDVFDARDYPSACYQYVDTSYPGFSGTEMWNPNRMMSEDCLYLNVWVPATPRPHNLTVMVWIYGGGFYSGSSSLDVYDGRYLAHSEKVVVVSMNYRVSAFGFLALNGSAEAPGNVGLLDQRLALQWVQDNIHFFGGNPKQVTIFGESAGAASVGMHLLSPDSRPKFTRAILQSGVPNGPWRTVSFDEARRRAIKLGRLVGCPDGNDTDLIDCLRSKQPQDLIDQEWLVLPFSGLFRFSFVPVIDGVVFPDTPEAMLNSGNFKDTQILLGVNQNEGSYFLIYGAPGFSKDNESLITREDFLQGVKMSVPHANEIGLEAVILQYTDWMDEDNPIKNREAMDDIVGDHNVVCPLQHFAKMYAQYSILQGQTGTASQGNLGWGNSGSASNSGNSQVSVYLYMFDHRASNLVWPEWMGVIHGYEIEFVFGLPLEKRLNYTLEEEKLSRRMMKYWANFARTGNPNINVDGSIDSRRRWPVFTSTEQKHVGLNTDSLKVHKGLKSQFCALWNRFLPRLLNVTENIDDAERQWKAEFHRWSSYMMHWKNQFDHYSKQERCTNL
Experimental: (§2) For in vitro evaluation of inhibition of EeAChE (EC3.1.1.7, type V-S, purified from Electrophorus electricus) and eqBuChE (EC 3.1.1.8, purified from equine serum, both from Sigma-Aldrich), the kinetic assay was performed according to the Ellman method modified using 96-well plates as previously described. […]. Progression curves were acquired using the Softmax PRO 5.0 software (Molecular Devices) from which the maximum hydrolysis velocity was calculated and the analysis performed with the Prism 5 software (GraphPad Inc., La Jolla, CA, USA). […]. The solvent had no detectable effect at the highest concentration used (0.2% v/v).

eqBuChE = target: T2, eqBuChE (Equus caballus, UniProt P81908); assay: BuChE inhibition, modified Ellman kinetic assay; assay type: biochemical
T2 construct: purified from equine serum; purchased Sigma-Aldrich; host or cells: equine serum (natural source)
T2 sequence (P81908 whole entry): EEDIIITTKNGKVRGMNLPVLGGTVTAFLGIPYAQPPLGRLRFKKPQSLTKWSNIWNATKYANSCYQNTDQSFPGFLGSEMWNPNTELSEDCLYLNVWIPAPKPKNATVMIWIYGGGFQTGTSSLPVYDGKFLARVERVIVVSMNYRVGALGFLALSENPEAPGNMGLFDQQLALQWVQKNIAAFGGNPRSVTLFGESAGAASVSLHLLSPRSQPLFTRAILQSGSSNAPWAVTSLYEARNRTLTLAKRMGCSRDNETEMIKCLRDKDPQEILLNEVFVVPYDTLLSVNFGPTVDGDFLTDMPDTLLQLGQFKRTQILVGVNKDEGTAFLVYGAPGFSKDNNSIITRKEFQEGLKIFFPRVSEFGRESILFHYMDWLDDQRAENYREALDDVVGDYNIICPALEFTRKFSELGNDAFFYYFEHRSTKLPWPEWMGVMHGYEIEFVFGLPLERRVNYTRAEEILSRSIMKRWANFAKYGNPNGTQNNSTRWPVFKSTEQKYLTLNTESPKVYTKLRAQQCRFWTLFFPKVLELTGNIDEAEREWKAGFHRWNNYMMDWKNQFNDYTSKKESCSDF
Experimental: as §2

SH-SY5Y cells [4] = assay: Neuroprotective activity against Aβ42 oligomers in SH-SY5Y cells, MTT assay; assay type: cell-based, human; details: 3e 5 µM with OAβ42 10 µM, 4 h
Experimental: Given the best antioxidant profile of compound 3e we also evaluated its ability to protect the SH-SY5Y cells against the neurotoxicity elicited by Aβ42 peptide oligomers (OAβ42), soluble aggregates of Aβ peptides involved in the pathogenesis of AD.
as §1
Aβ42 peptide (AnaSpec, Fremont, CA, USA) was first dissolved in 1,1,1,3,3,3-hexafluoroisopropanol to 1 mg/mL, sonicated, incubated at room temperature for 24 h, and lyophilised to obtain an unaggregated Aβ42 peptide film that was solubilised with DMSO and stored at −20 °C until use. The aggregation of Aβ42 peptide into oligomers was performed as previously described. SH-SY5Y cells were seeded in a 96-well plate at 3 × 10^4 cells/well, incubated for 24 h, and treated with the compounds for 24 h. The cells were then treated for 4 h with 3e [5 μM] and OAβ1-42 [10 μM]. The neuroprotective activity, in terms of increase in intracellular MTT granules, was measured by MTT assay, as previously described.

COc1cc(Cn2cc(C(=O)N/N=C/c3ccc(O)cc3)nn2)ccc1O [3a, (E)-1-(4-Hydroxy-3-methoxybenzyl)-N’-(4-hydroxybenzylidene)-1H-1,2,3-triazole-4-carbohydrazide]
toxic effects (SH-SY5Y cells [1]): did not show any toxic effects
IC50 (SH-SY5Y cells [1]): > 80 µM
inhibition at 10 µM (SH-SY5Y cells [2]): 20.6%
Direct Antioxidant Activity in SH-SY5Y Cells (percentage inhibition of ROS formation induced by t-BOOH) (SH-SY5Y cells [2]): In ^d
effect on intracellular GSH levels (SH-SY5Y cells [3]): increased the GSH levels

COc1cc(Cn2cc(C(=O)N/N=C/c3cc(O)cc(O)c3)nn2)ccc1O [3b, (E)-N’-(3,5-Dihydroxybenzylidene)-1-(4-hydroxy-3-methoxybenzyl)-1H-1,2,3-triazole-4-carbohydrazide]
toxic effects (SH-SY5Y cells [1]): did not show any toxic effects
IC50 (SH-SY5Y cells [1]): > 80 µM
inhibition at 10 µM (SH-SY5Y cells [2]): 14.1%
Direct Antioxidant Activity in SH-SY5Y Cells (percentage inhibition of ROS formation induced by t-BOOH) (SH-SY5Y cells [2]): In
effect on intracellular GSH levels (SH-SY5Y cells [3]): increased the GSH levels

COc1ccc(/C=N/NC(=O)c2cn(Cc3ccc(O)c(OC)c3)nn2)cc1 [3c, (E)-1-(4-Hydroxy-3-methoxybenzyl)-N’-(4-methoxybenzylidene)-1H-1,2,3-triazole-4-carbohydrazide]
IC50 (SH-SY5Y cells [1]): 10.3 µM

COc1cc(/C=N/NC(=O)c2cn(Cc3ccc(O)c(OC)c3)nn2)cc(OC)c1 [3d, (E)-N’-(3,5-Dimethoxybenzylidene)-1-(4-hydroxy-3-methoxybenzyl)-1H-1,2,3-triazole-4-carbohydrazide]
IC50 (SH-SY5Y cells [1]): 67.7 µM

COc1cc(/C=N/NC(=O)c2cn(Cc3ccc(O)c(OC)c3)nn2)ccc1O [3e, (E)-1-(4-Hydroxy-3-methoxybenzyl)-N’-(4-hydroxy-3-methoxybenzylidene)-1H-1,2,3-triazole-4-carbo-hydrazide]
IC50 (EeAChE): 26.3 µM
inhibition at 30 µM (EeAChE; read-out: inhibition of the AChE activity at the screening concentration): > 50%
ability to inhibit BuChE (eqBuChE): no relevant activity was detected
toxic effects (SH-SY5Y cells [1]): did not show any toxic effects
IC50 (SH-SY5Y cells [1]): > 80 µM
inhibition at 10 µM (SH-SY5Y cells [2]): 35.2%
effect on intracellular GSH levels (SH-SY5Y cells [3]): increased the GSH levels
effect on loss of neuronal viability induced by OAβ42 (SH-SY5Y cells [4]): significantly reduced the loss of neuronal viability

COc1cc(Cn2cc(C(=O)N/N=C/c3ccccc3)nn2)ccc1O [3f, (E)-N’-Benzylidene-1-(4-hydroxy-3-methoxybenzyl)-1H-1,2,3-triazole-4-carbohydrazide]
IC50 (SH-SY5Y cells [1]): 63.8 µM

COc1cc(Cn2cc(C(=O)N/N=C/c3ccc(N4CCCCC4)cc3)nn2)ccc1O [3g, (E)-1-(4-Hydroxy-3-methoxybenzyl)-N’-(4-(piperidin-1-yl)benzylidene)-1H-1,2,3-triazole-4-carbohydrazide]
IC50 (SH-SY5Y cells [1]): 10.3 µM

COc1cc(Cn2cc(C(=O)N/N=C/c3ccc(Cl)cc3)nn2)ccc1O [3h, (E)-N’-(4-Chlorobenzylidene)-1-(4-hydroxy-3-methoxybenzyl)-1H-1,2,3-triazole-4-carbohydrazide]
IC50 (SH-SY5Y cells [1]): 3.02 µM

COc1cc(Cn2cc(C(=O)N/N=C/c3cccc(Cl)c3)nn2)ccc1O [3i, (E)-N’-(3-Chlorobenzylidene)-1-(4-hydroxy-3-methoxybenzyl)-1H-1,2,3-triazole-4-carbohydrazide]
IC50 (SH-SY5Y cells [1]): 10.4 µM

COc1cc(Cn2cc(C(=O)N/N=C/c3ccccc3Cl)nn2)ccc1O [3j, (E)-N’-(2-Chlorobenzylidene)-1-(4-hydroxy-3-methoxybenzyl)-1H-1,2,3-triazole-4-carbohydrazide]
IC50 (SH-SY5Y cells [1]): 28.3 µM

COc1cc(Cn2cc(C(=O)N/N=C/c3ccc(F)cc3)nn2)ccc1O [3k, (E)-N’-(4-Fluorobenzylidene)-1-(4-hydroxy-3-methoxybenzyl)-1H-1,2,3-triazole-4-carbohydrazide]
IC50 (SH-SY5Y cells [1]): 3.62 µM

COc1cc(Cn2cc(C(=O)N/N=C/c3ccccc3F)nn2)ccc1O [3l, (E)-N’-(2-Fluorobenzylidene)-1-(4-hydroxy-3-methoxybenzyl)-1H-1,2,3-triazole-4-carbohydrazide]
IC50 (SH-SY5Y cells [1]): 68.5 µM

COc1cc(Cn2cc(C(=O)N/N=C/c3cccc(F)c3)nn2)ccc1O [3m, (E)-N’-(3-Fluorobenzylidene)-1-(4-hydroxy-3-methoxybenzyl)-1H-1,2,3-triazole-4-carbohydrazide]
IC50 (SH-SY5Y cells [1]): 42.9 µM
